Experimental findings from patent US5288705A, “Manipulation of ovulation and spawning in fish” (Israel Oceanographic & Limnological Research Ltd., priority 1988, dated 1994) are described below.

Common to all, as to type: in vivo
The test system of assay [1] is Female seabream (Sparus aurata). The assay is described as follows: Plasma GtH levels by specific homologous radioimmunoassay after GnRHa administration (Example 1). The settings on record: FIG. 1. The protocol: (§1) Female seabream (Sparus aurata) reaching final stages of vitellogenesis received one of the following treatment of GnRHa - an analog of mammalian GNRH ([D-Ala^6 -Pro^9 -NET]-LHRH):
(§2) 1. An intramuscular injection of GnRHa in a saline solution (10 μg GnRHa/kg body weight which is an acceptable amount for injection);
(§3) 2. Implantation of a Silastic implant (Sila.) according to Crim et al., 1986, containing GnRHa (150 μg GnRHa/fish);
(§4) 3. Implantation of a biodegradable copolymer of polylacticpolyglycolic acid (Z. implant) containing GnRHa (150 μg GnRHa/fish);
(§5) 4. Placebo injection of saline (Control).
Before the treatment and at various intervals thereafter, the fish were bled. After withdrawing a blood sample the fish were returned into the water. GtH levels were determined in the withdrawn blood sample by specific homologous radioimmunoassay. The results are shown in FIG. 1 of the annexed drawings.

Assay [2] has the same test system. The assay can be described thus: Spawning activity of treated females kept with two males (Example 1). As to conditions: spawning activity = tens of thousands of fertilized eggs per day over more than one week. As for the experimental part: as §1, §2, §3, §4, §5
Additionally, several treated, non-bled females from each treatment group were kept, each in a separate container, which was connected to an egg collector, together with two males. The females were followed for their spawning activity, which was defined in this experiment as tens of thousands of fertilized eggs collected per day over a period of more than one week.

The test system of assay [3] is females of rainbow trout, Salmo gaixdneri. The assay is described as follows: Blood GtH levels after hormone administration (Example 4). As for the experimental part: (§6) 24 females of rainbow trout, Salmo gaixdneri, were divided into four groups, six fish in each group. Each group received one of the following treatments:
(§7) 1. Injection of the mammalian GnRHa as in Example 1 ([…] body weight), in saline;
(§8) 2. Administration of a biodegradable copolymer of polylactic-polyglycolic acid containing the same GnRHa (150 mg/fish 150 μg/fish) in pellets, implanted under the fish's skin;
(§9) 3. Ethylene vinyl acetate copolymer pellets containing a fish GnRH analog (GNRHH) - [D-Arg^6 -Pro^9 -NET]sGnRH (150 mg/fish 150 μg/fish),implanted under the skin;
All fish were bled before and at different intervals after hormone administration, for the determination of blood GtH levels, similarly as in Example 1.

Assay [4] shares this test system. The assay can be described thus: Occurrence of ovulation monitored by ovarian biopsy (Example 4). The protocol: as §6, §7, §8, §9
An additional four groups of 20 females in each group, undergoing advanced stages of vitellogenesis, were treated as above and used for monitoring the state of ovarian development and the occurrence of ovulation. An overian biopsy was sampled from these females every 2 to 4 days for 30 days post-treatment.

Consider [D-Ala^6 -Pro^9 -NET]-LHRH [Group 1], for which the “plasma GtH level / GtH release” value in assay [1] is “decreased rapidly”. The “percentage of the females showing spawning activity” value in assay [2] is on record as 25%. The “period of GtH level surge in plasma” value in assay [3] is “about 48 hrs”. The “degree of ovulation (in percent of ovulated females)” value was found to be 30% in assay [4] (6 days post treatment), 40% in assay [4] (9 days post treatment) and 60% in assay [4] (30 days post treatment). The “acceleration / synchronization of ovulation” value in assay [4] (versus control group) is “did not accelerate or synchronize ovulation”.
